Assay results published in ChEMBL document CHEMBL1212934, “Isolation of pandamarilactonine-H from the roots of Pandanus amaryllifolius and synthesis of epi-pandamarilactonine-H” (J Nat Prod, 2010).

How the values were obtained:
Type in all cases: functional, cell-based
[1] = test system: HCT-116; test: Cytotoxicity against human HCT116 cells
[2] = test system: HT-29; test: Cytotoxicity against human HT-29 cells
[3] = test system: A549; test: Cytotoxicity against human A549 cells

Measured: IC50

COC(=O)C[C@@H]1CCCN1CCC/C=C1\C=C(C)C(=O)O1
> 5 µg/mL: all assays above

COC(=O)C[C@H]1CCCN1CCC/C=C1\C=C(C)C(=O)O1
> 5 µg/mL: all assays above

COC(=O)C[C@H]1CCCN1CCC/C=C1/C=C(C)C(=O)O1
> 5 µg/mL: all assays above

CC1=C[C@H]([C@H]2CCCN2CCCC[C@@H]2C[C@@H](C)C(=O)O2)OC1=O
> 5 µg/mL: all assays above
